According to paper PMC9820444, “Design and Synthesis of Acridine-Triazole and Acridine-Thiadiazole Derivatives and Their Inhibitory Effect against Cancer Cells” (International Journal of Molecular Sciences, 2022):
Read-outs that look alike come from different tables or passages of the source. Marks after values point to notes of the source that are not given here.

Key:
[1] = tested on: hepatocellular carcinoma bel-7404 (BEL-7404); assay: MTT antiproliferative assay, BEL-7404; type: cell-based, human; conditions: read-out: Effect against cell viability (IC50), BEL-7404
Description: (§1) All newly synthesized acridinyl derivatives (4–6) were screened for their anticancer activities in comparison to the reference compounds, 5-FU and cis-platinum. Compounds 4–6 were tested for their in vitro antitumor activities against HFF, MGC-803, BEL-7404, NCI-H460, and T24 tumor cell lines, and human normal liver cells (LO2), and the results are shown in Table 1. Most of the compounds had strong selective potency against MGC-803 and T24 cancer cells. […] In the T24 cell line assay, many compounds, especially the series of compound 4, had significant activity against T24. This implies that there is a significant increase in potency after the introduction of the aroyl thiourea group. […] To our delight, most 1,2,4-triazolethiones (5) and 1,2,4-thiadiazoles (6) have low toxicity to LO2 compared with the positive control.
(§2) Test samples, including compounds 4–6 and commercial classical anticancer drugs (5-FU and cis-platinum), were screened for their anti-cancer activity against HFF human foreskin fibroblast cells, MGC-803 human gastric cancer cells, BEL-7404 human hepatocellular carcinoma cells, NCI-H460 human large cell carcinoma cells, and T24 human bladder carcinoma cells using the 3-(4,5-dimethylthiazol-2-yl)-2,5-diphenyltetrazoliumbromide (MTT) assay method cited in the literature. The initial concentration of all the test samples was 100 μg/mL, which was serially diluted in complete medium with ten-fold dilutions to give six concentrations per compound. Their cytotoxicity was determined in 96-well flat bottomed microtiter plates. All the test samples were tested in triplicate. The results were expressed as the drug concentration that inhibited cell growth by 50% as compared to the controls (IC50). The IC50 values were calculated from regression lines obtained from the percent cell growth inhibition plotted as a function of the logarithm of the dose.

[2] = tested on: large cell lung cancer cells (NCI-H460); assay: MTT antiproliferative assay, NCI-H460; type: cell-based, human; conditions: read-out: Effect against cell viability (IC50), NCI-H460
Description: as §1, §2

[3] = tested on: human foreskin fibroblasts (HFF); assay: MTT antiproliferative assay, HFF; type: cell-based; conditions: read-out: Effect against cell viability (IC50), HFF
Description: as §1, §2

[4] = tested on: T24 cells; assay: Cell cycle analysis by flow cytometry, T24; type: cell-based, human; conditions: T24, 8.05 μM (IC50), 48 h; control 22.89%
Description: (§3) Compared to control, both compounds 4h and 5d interfered with the cell cycles of T24 and MGC80-3 cells, respectively.
(§4) The apoptosis assay and the cell cycle analysis were carried out by cytometry (FACSVerse, BD, Piscataway, NJ, USA) at an excitation wavelength of 488 nm according to the method described in the literature with slight modifications. The cells were seeded at 2 × 10^6/well and washed by cold PBS. The buffer solutions were prepared using 0.1 M pH 7.4 Hepes/NaOH, 1.4 M NaCl, and 25 mM CaCl2.

[5] = tested on: bladder cancer cells (T24); assay: MTT antiproliferative assay, T24; type: cell-based, human; conditions: read-out: Effect against cell viability (IC50), T24
Description: as §1, §2

[6] = tested on: zebrafish embryos; design: mortality rate of zebrafish embryos: dose or concentration left out as unconfirmed; conditions: for MAR (malformation rate) / MOR (mortality rate): zebrafish embryos 72 hpf
Description: In this experiment, 2% DMSO was used to dissolve the target products, and the abnormal rate (MAR) and mortality rate (MOR) of zebrafish embryos (72 hpf) were used for statistics.
The zebrafish embryos were collected at 6 hpf and randomly divided into naive control (embryos maintained in distilled water), vehicle control (embryos treated with 2% DMSO), and drug groups. Stock solutions of all drugs were prepared in 2% DMSO as a solubilizing agent and diluted to three concentrations (0.5 mg/mL, 1 mg/mL, and 2 mg/mL). Each group had 20 embryos per test concentration. […] Each compound was evaluated in three independent biological experiments.

[7] = tested on: human gastric cancer cells-803 (MGC-803); assay: MTT antiproliferative assay, MGC-803; type: cell-based; conditions: read-out: Effect against cell viability (IC50), MGC-803
Description: as §1, §2

[8] = tested on: T24 cells; assay: Apoptosis by Annexin V-FITC/PI flow cytometry, T24; type: cell-based, human; conditions: T24, at IC50 concentration (4h 8.05 μM; 6h 8.93 μM); control 1.18%
Description: (§5) The apoptosis ratios of MGC80-3 or T24 cell lines induced by the selected compounds at the concentration of IC50 and 0.5 IC50 were quantitatively determined by flow cytometry. Four quadrant images (Q1, Q2, Q3 and Q4) were observed by flow cytometric analysis. The results of apoptosis ratios (including the early and late apoptosis ratios) after 12 h are presented in Figure 6 (MGC80-3) and Figure 7 (T24). […] After treatment with compound 6h, 5.62% (3.43 μM) and 14.25% (6.85 μM) of the cells were apoptotic. These were higher percentages than the one observed in the control (0.586%). […] The results evidently illustrate that representative compounds 5d and 6h or 4h and 6h could suppress cell proliferation by inducing apoptosis in the early apoptotic period.
as §4

[9] = tested on: human normal liver cells (LO2); assay: Cytotoxicity against normal liver cells LO2; type: cell-based; conditions: MTT, read-out: Effect against cell viability (IC50), LO2
Description: as §1, §2

[10] = tested on: subintestinal veins (SIVs) in zebrafish embryos; assay: Zebrafish angiogenesis assay (subintestinal veins, NBT/BCIP staining); type: in vivo; conditions: 1 mg/mL; for area of the meshed pattern vessel and number of vascular branches in the network: zebrafish embryos, compared with blank control group
Description: Currently, the zebrafish has emerged as a valuable model organism to substitute traditional models for studying angiogenesis inhibitors. The genes of zebrafish show 70–80% similarity to humans, and the vascular structure of zebrafish has high similarity to that of other vertebrates. Therefore, the subintestinal veins (SIVs) in the zebrafish embryos are used as evaluation indicators for anti-angiogenesis inhibitors. In this study, NBT/BCIP vascular staining was used to observe the angiogenesis effect of representative drugs (4h, 4f, 5d, 5h, 6g and 6h) in a zebrafish model. […] Compared with the blank control group, the area of the meshed pattern vessel and the number of vascular branches in the network decreased after the administration of compounds 4h, 5d, 5h and 6h.
The 24 hpf zebrafish embryos were dechorionated with a 1 gL^−1 pronase treatment and maintained in distilled water in 12-well cell culture plates (each well contained 20 embryos). A negative control group containing zebrafish embryos in distilled water and a vehicle treatment group that was treated with 2% dimethyl sulfoxide (DMSO) were prepared. The anti-angiogenic compounds were diluted to 1 mg/mL. After incubating at 28 °C for […], the embryos were immersed in 4% paraformaldehyde and dehydrated by gradient ethanol. Subsequently, the embryos were balanced in NTMT buffer (5 M NaCl + 1 M Tris [pH 9.0–9.5] + 1 M MgCl2+ 10% Tween), and nitrotetrazolium blue chloride (NBT) and p-toluidine salt (BCIP) staining were performed. To evaluate the effect of compounds on the angiogenesis of zebrafish embryos, the growth of embryonic sub-intestinal veins (SIVs) at 72 hpf was observed using an IX71 Olympus microscope (Hamburger, Germany). The length of the SIVs was calculated using the image J 1.8.0 software (Bethesda, MD, USA).

[11] = tested on: MGC80-3 cells; assay: Cell cycle analysis by flow cytometry, MGC80-3; type: cell-based, human; conditions: MGC80-3, 5.52 μM (IC50), 48 h; control 8.91%
Description: as §3, §4

[12] = tested on: MGC80-3 cells; assay: Apoptosis by Annexin V-FITC/PI flow cytometry, MGC80-3; type: cell-based, human; conditions: for apoptosis percentage (early and late): control 0.586%
Description: as §5, with “The results of apoptosis ratios (including the early and late apoptosis ratios) after 12 h are presented in Figure 6 (MGC80-3) and Figure 7 (T24).” left out
as §4

Structure (SMILES): COc1ccc(C(=O)NNC(=S)Nc2c3ccccc3nc3ccc(C)cc23)cc1 [4h, 1-2′-methyl acridinyl-3-4’-methoxy benzoyl thiosemicarbazides]
- IC50 [1]: 27.1 ± 2.91 µM
- IC50 [2]: 25.4 ± 3.16 µM
- IC50 [3]: > 100 µM
- S phase population [4]: 30.04%
- IC50 [5]: 8.05 ± 1.06 µM
- MAR (malformation rate) ([6]; 1 mg/mL): 35% ^a
- MOR (mortality rate) ([6]; 1 mg/mL): 15% ^a
- MAR (malformation rate) ([6]; 1.5 mg/mL): 85% ^a
- MOR (mortality rate) ([6]; 1.5 mg/mL): 15% ^a
- MAR (malformation rate) ([6]; 2 mg/mL): 35% ^a
- MOR (mortality rate) ([6]; 2 mg/mL): 65% ^a
- total mortality and malformation rate ([6]; zebrafish embryos, 2.0 mg.L^−1): 100%
- IC50 ([7]; MTT): 11.2 ± 1.46 µM
- apoptosis ratio [8]: 12.377%
- IC50 [9]: 9.01 ± 0.93 µM
- area of the meshed pattern vessel and number of vascular branches in the network [10]: decreased

Structure (SMILES): COc1ccc2nc3ccccc3c(-n3c(-c4ccc([N+](=O)[O-])cc4)n[nH]c3=S)c2c1 [5d, 4-(2-methoxyacridin-9-yl)-5-(4-nitrophenyl)-2,4-dihydro-3H-1,2,4-triazole-3-thione]
- IC50 ([1]; Homo sapiens): 25.1 ± 2.89 µM
- IC50 ([2]; Homo sapiens): 19.4 ± 1.58 µM
- IC50 ([3]; Homo sapiens, Fibroblast): 62.9 ± 1.9 µM
- G2 phase population [11]: 13.32%
- apoptosis percentage (early and late) ([12]; MGC80-3, 0.5 IC50 (5d 2.76 μM; 6h 3.43 μM)): 6.616%
- Q4 (live) cells ([12]; MGC80-3, IC50 (5d 5.52 μM; 6h 6.85 μM), 24 h, control 93.0%): 81.2%
- apoptosis percentage (early and late) ([12]; MGC80-3, IC50 (5d 5.52 μM; 6h 6.85 μM)): 17.51%
- IC50 ([5]; Homo sapiens): 15.9 ± 1.38 µM
- mortality rate of zebrafish embryos [6]: ~0%
- malformation rate of zebrafish embryos ([6]; 2.0 mg.L^−1): less than 15%
- MAR (malformation rate) ([6]; 1 mg/mL): 5% ^b
- MOR (mortality rate) ([6]; 1 mg/mL): 0%
- MAR (malformation rate) ([6]; 1.5 mg/mL): 10% ^a
- MOR (mortality rate) ([6]; 1.5 mg/mL): 0%
- MAR (malformation rate) ([6]; 2 mg/mL): 10% ^c
- MOR (mortality rate) ([6]; 2 mg/mL): 0%
- IC50 ([7]; Homo sapiens, MGC-803, MTT): 5.52 ± 1.04 µM
- IC50 ([9]; Homo sapiens): 51.8 ± 3.46 µM
- reduction in the vessel length (SIVs) compared to the mean vessel length for the controls ([10]; 72 hpf zebrafish embryos): ~50%
- area of the meshed pattern vessel and number of vascular branches in the network [10]: decreased
